Measurements as given in US10456405B2, “Nitric oxide-releasing prodrug molecule of substituted quinazolines” (ZHEJIANG HUAHAI PHARMACEUTICAL CO., LTD, priority 2015, dated 2019).
Read-outs that look alike come from different tables or passages of the source.

Assays:
apoE−/− mice = assay: apoE−/− mouse atherosclerosis model, high-fat diet 10 weeks; type: in vivo; details: for Aorta eNOS / ApoA1 / Heart eNOS / Serum NO / Serum eNOS: blank administration group = 100, 150 mg/kg twice a day, 10 weeks; for HDL-C / LDL-C / TC: serum, high-fat diet 10 weeks, intragastric 150 mg/kg twice a day
Description: Experimental method: 36 eight-week-old male apoE-/- mice were selected and randomly divided into a blank administration group, an […] administration group, an […] administration group, an […] administration group, an […] administration group, and an […] administration group, 6 mice per group. The mice in each group were fed with high-fat diet for 10 weeks. At the beginning of the high-fat feeding, the mice in each group were administrated. Each tested compound was intragastric administered at the dose of 150 mg/kg twice a day. The blank administration group was given corresponding dose of saline. […] After the blood was taken, the serum, heart, and aorta were isolated. The levels of total cholesterol (TC), high density lipoprotein cholesterol (HDL-C), and low density lipoprotein cholesterol (LDL-C) in the serum of the mice in each group were measured by automatic biochemical analyzer. The ApoA1 expression level was detected with an ApoA1 kit. The content of NO in the serum of the mice was determined with a total NO test kit (Beyotime). The NOS activities of the heart, aorta, and serum were determined with an NOS test kit (Beyotime). The content of eNOS was calculated by the difference between the measured values determined before and after adding eNOS inhibitor L-NAME (Beyotime).

C57BL/6 mice = assay: Serum NO level in C57 mice after oral gavage; type: in vivo; details: oral gavage 150 mg/kg (positive drug 5 mg/kg), FIG. 1
Description: Experimental method: 60 eight-week-old C57BL/6 mice (level: SPF; gender: male; source: Shanghai SLAC Laboratory Animal Co., Ltd.) were selected. […] were selected as the blank control. 12 mice were used as the positive drug control (isosorbide mononitrate). 12 mice were used as […] administration group. The other 32 mice were randomly divided into 4 groups, 8 mice per group, which are […] administration group, […] administration group, […] administration group, and […] administration group, respectively. The tested compounds of the positive drug control group and each administration group were dissolved in DMSO and then PEG400 was added thereto. The mixture was shaken and mixed thoroughly. At last, 10% of HP-β-CD was added. The mixture was shaken and mixed thoroughly. The ratio of each solvent was DMSO: PEG400:10% of HP-β-CD=5:67.5:27.5. The administration groups were administered by oral gavage at the dose of 150 mg/kg. The positive drug control group was administered at the dose of 5 mg/kg. The mice in each group were sacrificed by inhaling excess CO2 at 10 min, 30 min, 60 min, 120 min, 180 min, and 240 min after administration. The blood was collected into a 1.5 mL centrifuge tube, standing at room temperature for more than 30 min, and then centrifuged (3000 rpm, 10 min). The supernatant serum was aspirated, and stored at -80° C. for testing. After the blood was collected, the heart was cut with the thoracic aorta. Three parts of the heart were weighed and placed into cryovials, rapidly frozen in liquid nitrogen, and cryopreserved at -80° C. for testing. The aorta and aortic arch were weighed, rapidly frozen in liquid nitrogen, and cryopreserved at -80° C. for testing. The content of NO in the serum of C57BL/6 mice was determined by using the total NO test kit (Beyotime).

db/db mice = assay: Serum NO and heart eNOS in db/db mice after oral gavage; type: in vivo; details: blank = 100, oral gavage 150 mg/kg (isosorbide mononitrate 5 mg/kg), 1 h after administration (H101: 2 h)
Procedure, shortened: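 Male 8-week-old BKS db/db mice received a single oral gavage dose of 150 mg/kg (isosorbide mononitrate 5 mg/kg) in DMSO/PEG400/10% HP-β-CD 5:67.5:27.5, n=4 per group. Sacrifice at 1 h (H101 at 2 h). Serum total NO by kit; heart eNOS taken as NOS activity difference ± L-NAME.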

[1] = rat, in vivo
Description: Experimental method: Intravenous injection solutions (the administration concentrations of the tested compounds were 1 mg/kg) and oral gastric perfusates (the administration concentrations of the test compounds were 5 mg/kg) of the test compounds were prepared, and intravenously and orally administered to three SD rats, respectively. The concentrations of the whole blood for H130 at 0.083 h, 0.25 h, 0.5 h, 1 h, 2 h, 4 h, 8 h, and 24 h after administration were determined by LC-MS/MS, respectively. The pharmacokinetic parameters were compared by a drug-time curve. Sample pretreatment: 150 μL of the whole blood to be tested was aspirated accurately. 600 μL of internal standard solution (diluted to 0.5 μg/mL with methanol) was added, sufficiently mixed by a vortex mixer, and centrifuged at 13000 r/min for 20 min at 4° C. 3 μL of the supernatant was taken into a sample vial.
Chromatographic conditions: C18 reversed-phase chromatographic column; gradient elution with mobile phase A: water/acetonitrile (v:v=95:5) with 0.025% of formic acid and 1 mM of ammonium acetate added thereto, and mobile phase B: acetonitrile/water (v:v=95:5) with 0.025% of formic acid and 1 mM of ammonium acetate added thereto.

AUCRatio (Dosage Calibration) ([1]; SD, iv, 1 mg/kg) | AUCRatio (Dosage Calibration) ([1]; SD, po, 5 mg/kg) | release of prototype compound H130 after administration [1] | AUCRatio (Dosage Calibration) ([1]; iv, 1 mg/kg) | AUCRatio (Dosage Calibration) ([1]; po, 5 mg/kg) | Compound | Aorta eNOS (apoE−/− mice) | ApoA1 (apoE−/− mice) | Heart eNOS (apoE−/− mice) | Serum NO (apoE−/− mice) | Serum eNOS (apoE−/− mice) | HDL-C (apoE−/− mice) | LDL-C (apoE−/− mice) | TC (apoE−/− mice) | time after administration at which serum NO level rose to its maximum, then decreased (C57BL/6 mice) | Heart eNOS (db/db mice) | Serum NO (db/db mice)
37.7% | 42.4% | can be rapidly released | – | – | COc1cc(OC)c2c(=O)[nH]c(-c3cc(C)c(OCCO[N+](=O)[O-])c(C)c3)nc2c1 [Compound H101, 2-(4-(2-nitrooxy-ethoxy)-3,5-dimethylphenyl)-5,7-dimethoxyquinazolin-4(3H)-one] | 132% | 126% | 135% | 126% | 128% | 78 ± 9 mg/dL | 273 ± 38 mg/dL | 985 ± 68 mg/dL | 2 h | 162% | 142%
– | – | can be rapidly released | 54.9% | 41.8% | 2-[4-(5,7-dimethoxy-4-oxo-3,4-dihydro-quinazolin-2-yl)-2,6-dimethyl-phenoxy]-ethyl 4-(2-oxo-3-nitroxymethyl-1,2,5-oxadiazol-3-methyl)oxy-4-oxo-butyrate [Compound H111] | 127% | 118% | 145% | 134% | 132% | 83 ± 13 mg/dL | 296 ± 29 mg/dL | 1021 ± 57 mg/dL | 1 h | 165% | 154%
– | – | can be rapidly released | 55.6% | 0.84% | COc1cc(OC)c2c(=O)[nH]c(-c3cc(C)c(OCCOC(=O)OC4COC5C(O[N+](=O)[O-])COC45)c(C)c3)nc2c1 (stereo not drawn) [Compound H119, 2-[4-(5,7-dimethoxy-4-oxo-3,4-dihydro-quinazolin-2-yl)-2,6-dimethyl-phenoxy]-ethyl (6-nitroxy-hexahydrofuro[3,2-b]furan-3-yl)-carbonate] | 124% | 114% | 138% | 127% | 126% | 88 ± 14 mg/dL | 308 ± 35 mg/dL | 994 ± 85 mg/dL | 1 h | 156% | 152%
